Where a name gives a salt, the structure may show the parent alone.
Legend:
[1] = test system: LNCaP (lymph node metastasis of prostate cancer); assay: Methylene Blue Growth Inhibition Assay; format: cell-based; settings: Homo sapiens, 72 h, 3 days incubation
Experimental: (§1) Tumor cell lines used in this assay were BT474 (human breast carcinoma) and LNCaP (lymph node metastasis of prostate cancer). HFF (normal human foreskin fibroblast) was also included. All cell lines were cultured in RPMI 1640 media (Invitrogen Corporation 22400-071) containing 10% Fetal Bovine Serum (FBS) at 37° C. in a humidified 5% CO2 incubator. Cells were harvested using trypsin/EDTA, counted using a hemacytometer and plated in 96-well tissue culture plates (Costar 35-3075), 100 uL per well, at the following densities: BT474 15,000 cells/well, LNCaP 5,000 cells/well and HFF 5,000 cells/well. 10 mM stocks of compounds in DMSO were serially diluted in DMSO through nine 3-fold dilutions in 96-well plates (Costar Corning 3363), and stored at −80 C. The next day, compound dilutions were thawed and 4 uL of each transferred to 662 uL RPMI 1640+100 ug/mL gentamicin, resulting in twice the final required test concentrations. 100 uL of compounds diluted in RPMI 1640 were added to all cell lines. The final concentration of DMSO in all wells, including controls, was 0.3%. Cells were incubated at 37 C, 5% CO2 for 3 days. Medium was removed by aspiration. Cell biomass was estimated by staining cells with 80 uL methylene blue (Sigma M9140, 0.5% in 50:50 ethanol:water), and incubating at room temperature for 1 hour. Stain was aspirated and the plates rinsed by immersion in water, then air-dried. Stain was released from cells by adding 100 uL of solubilizing solution (1% N-lauroyl sarcosine, sodium salt, Sigma L5125, in PBS) and incubating at room temperature for at least 30 minutes. Plates were shaken and the optical density at 620 nm was measured on a microplate reader. Percent inhibition of cell growth was calculated relative to vehicle-treated control wells. Concentration of compound that inhibits 50% of cell growth (IC50) was interpolated using non-linear regression (Levenberg-Marquadt) and the equation, y=Vmax*(1−(x̂n/K̂n+x̂n)))+Y2. [Ref: Mager, M. E. (1972) Data Analysis in Biochemistry and Biophysics. New York: Academic Press]

[2] = test system: HFF (normal human foreskin fibroblast); assay: Methylene Blue Growth Inhibition Assay; format: cell-based; settings: 72 h, HFF normal cells, 3 days incubation
Experimental: as §1

[3] = test system: BT474 (human breast carcinoma); assay: Methylene Blue Growth Inhibition Assay; format: cell-based; settings: BT-474, 72 h, BT474, 3 days incubation
Experimental: as §1

[4] = Solubility in 50 mM phosphate buffer at pH 7.4; format: physicochemical; settings: suitability for IV dosage forms

IC50 [1] | IC50 [3] | SMILES | IC50 [2] | solubility (assessment in words) [4]
0.083 µM | 0.186 µM | CCn1c(-c2nonc2N)nc2c(C#CC(C)(C)O)ncc(OC[C@@H]3CN(C)CCS3)c21 (single isomer, unassigned; enantiomer e1) [Example 7, 4-(2-(4-amino-1,2,5-oxadiazol-3-yl)-1-ethyl-7-{[(4-methyl-2-thiomorpholinyl)methyl]oxy}-1H-imidazo[4,5-c]pyridin-4-yl)-2-methyl-3-butyn-2-ol (enantiomer E1)] | > 30 µM | –
0.189 µM | 1 µM | CCn1c(-c2nonc2N)nc2c(C#CC(C)(C)O)ncc(OC[C@H]3CNCCO3)c21 [Example 2, 4-(2-(4-amino-1,2,5-oxadiazol-3-yl)-1-ethyl-7-{[(2R)-2-morpholinylmethyl]oxy}-1H-imidazo[4,5-c]pyridin-4-yl)-2-methyl-3-butyn-2-ol dihydrochloric acid salt] | > 30 µM | –
0.053 µM | 0.324 µM | CCn1c(-c2nonc2N)nc2c(C#CC(C)(C)O)ncc(OC[C@H]3CCCN(C)C3)c21 [Example 6, 4-[2-(4-amino-1,2,5-oxadiazol-3-yl)-1-ethyl-7-({[(3S)-1-methyl-3-piperidinyl]methyl}oxy)-1H-imidazo[4,5-c]pyridin-4-yl]-2-methyl-3-butyn-2-ol, dihydrochloride] | 16.8 µM | –
0.015 µM | 0.037 µM | CCn1c(-c2nonc2N)nc2c(C#CC(C)(C)O)ncc(OC[C@@H]3CNCCO3)c21 [Example 4, 4-(2-(4-amino-1,2,5-oxadiazol-3-yl)-1-ethyl-7-{[(2S)-2-morpholinylmethyl]oxy}-1H-imidazo[4,5-c]pyridin-4-yl)-2-methyl-3-butyn-2-ol] | > 25 µM | suitable for formulation into dosage forms for IV administration
0.004 µM | 0.006 µM | CCn1c(-c2nonc2N)nc2c(C#CC(C)(C)O)ncc(OC[C@@H]3CNCCS3)c21 (single isomer, unassigned; enantiomer e1) [Example 3, 4-{2-(4-amino-1,2,5-oxadiazol-3-yl)-1-ethyl-7-[(2-thiomorpholinylmethyl)oxy]-1H-imidazo[4,5-c]pyridin-4-yl}-2-methyl-3-butyn-2-ol dihydrochloride (enantiomer E1)] | > 30 µM | suitable for formulation into dosage forms for IV administration
0.459 µM | 1.03 µM | CCn1c(-c2nonc2N)nc2c(C#CC(C)(C)O)ncc(OCC3CCNC3)c21 (stereo not shown) [Example 5, 4-[2-(4-amino-1,25-oxadiazol-3-yl)-1-ethyl-7-[(3-Pyrrolidinylmethyl)oxy]-1H-imidazo[4,5-c]pyridin-4-yl]-2-methyl-3-butyn-2-ol, bis-trifluoroacetic acid salt] | 20.1 µM | –
0.016 µM | 0.484 µM | CCn1c(-c2nonc2N)nc2c(C#CC(C)(C)O)ncc(OC[C@H]3CCCNC3)c21 [Example 1, 4-(2-(4-amino-1,2,5-oxadiazol-3-yl)-1-ethyl-7-{[(3S)-3-piperidinylmethyl]oxy}-1H-imidazo[4,5-c]pyridin-4-yl)-2-methyl-3-butyn-2-ol] | > 20 µM | suitable for formulation into dosage forms for IV administration
0.272 µM | 0.665 µM | CCn1c(-c2nonc2N)nc2c(C#CC(C)(C)O)ncc(OC[C@@H]3CN(C)CCO3)c21 [Example 8, 4-[2-(4-amino-1,2,5-oxadiazol-3-yl)-1-ethyl-7-({[(2S)-4-methyl-2-morpholinyl]methyl}oxy)-1H-imidazo[4,5-c]pyridin-4-yl]-2-methyl-3-butyn-2-ol] | > 30 µM | –
0.049 µM | 0.08 µM | CCn1c(-c2nonc2N)nc2c(C#CC(C)(C)O)ncc(OCC3CNCC(C)O3)c21 (stereo in doubt) [Example 9, 4-[2-(4-amino-1,2,5-oxadiazol-3-yl)-1-ethyl-7-({[(2R)-6-methyl-2-morpholinyl]methyl}oxy)-1H-imidazo[4,5-c]pyridin-4-yl]-2-methyl-3-butyn-2-ol, dihydrochloride] | 9.39 µM | suitable for formulation into dosage forms for IV administration
